Consider six molecules from patent EP1223923B1, “UNSATURATED ARYL SULFONES FOR PROTECTING NORMAL CELLS FROM CYTOTOXICITY OF CHEMOTHERAPEUTIC AGENTS” (Temple University - Of The Commonwealth System of Higher …, priority 1999, dated 2001).

Each structure is given as a SMILES string.

Holding throughout (assay type): cell-based
Series [1] deals with Normal human HFL-1 cells. Put plainly: Cytoprotection assay against paclitaxel. The arrangement: key: +: A compound was deemed to be active if the number of viable cells following the combination treatment was higher than the number of cells after treatment with paclitaxel alone. Conditions: 2.0 or 10 µM sulfone; paclitaxel (250 nM) at time zero or 24 hours later; viable cells after 96 hours of paclitaxel. As to the method:
The cytoprotective activity of the same styryl benzylsulfones was determined as follows. Normal human HFL-1 cells were plated at a cell density of 1.0 x 10^5 cells per well in six culture plates. Styryl benzylsulfone was added 24 hours later at a final concentration of either 2.0 or 10 µM. The time of styryl sulfone addition was designated as time zero. Paclitaxel (250 nM) was added at either time zero, or 24 hours after time zero. The total number of viable cells was determined, as described above, after 96 hours of paclitaxel treatment. A compound was deemed to be active if the number of viable cells following the combination treatment was higher than the number of cells after treatment with paclitaxel alone. Table 7: Antitumor and Cytoprotective Effect of Styryl Sulfones

Series [2] concerns HFL-1 cells. Put plainly: Protection of normal human fibroblasts from anticancer agent cytotoxicity (protection ratio, Trypan blue exclusion). Conditions: 2.0 µM sulfone 24 hour preincubation, viable cells 96 hours after cytotoxic agent. As for the experimental part: HFL-1 cells were plated at a cell density of 1.0 x 10^5 in 1 ml of medium. Twenty-four hours following plating, 2.0 µM of (E)-4-fluorostyryl-4-chlorobenzylsulfone was added to the medium. Following a 24 hour preincubation with the styryl sulfone, the various cytotoxic agents listed in Table 6 were added to the cells, at the concentrations given in Table 6. the number of viable cells was determined by Trypan blue exclusion using a hematocytometer 96 hours after exposure to cytotoxic agent. The "Protection Ratio" is the number of viable cells following treatment with (E)-4-fluorostyryl-4-chlorobenzylsulfone and cytotoxic agent, divided by the number of viable cells remaining after treatment with cytotoxic agent alone. A protection ratio of 2 or more is considered highly significant, while is protection ratio of 1.5-2 is considered less significant. […] Table 6: Protective Effect of (E)-4-Fluorostyryl-4-Chlorobenzylsulfone on HFL-1 Cells Treated with Cytotoxic Drugs

Series [3] is described as follows: Plating efficiency (colony-forming ability) of normal human fibroblasts. Conditions: hfl-1 cells, 24 hour incubation with drug, replated, colonies counted after 20 days, read-out: concentration of the drug causing 50% inhibition in plating efficiency. As for the experimental part:
HFL-1 cells (normal, human diploid lung fibroblasts) purchased from ATCC were plated after first passage at low density (2.0 x 10^5cells) per well (6 well dishes) in one ml of growth medium (DMEM completed with 10% fetal bovine serum and pen/strep). Twenty-four hours later, (E)-4-fluorostyryl-4-chlorobenzylsulfone was added to each well at the following final concentrations; 0 µM, 2.5. µM, 5.0 µM, 25 µM, 50 µM, and 75 µM. After a 24 hour incubation period, the wells were washed 3x with 5 ml normal growth medium and each well was trypsinized and cell counts were determined. To determine colony-forming ability, the cells from each treatment were then serial diluted and replated into 100mm dishes such that each group was split into 3 replating groups consisting of 10, 100, 200 cells per plate. The groups were plated in triplicate. The cells were incubated for 20 days under normal growth conditions and colonies were counted after staining with modified Wright stain (Sigma). The number of colonies from each plate in triplicate were determined and the average for each group was plotted. The concentration of the drug causing 50% inhibition in plating efficiency was calculated and found to be 70 µM.

For `O=C(C(=Cc1ccc(F)cc1)S(=O)(=O)c1ccccc1)c1ccccc1` [Example 12, 2-(phenylsulfonyl)-1-phenyl-3-(4-fluorophenyl)-2-propen-1-one], the Cytoprotection entry in series [1] was “+”.

Consider `O=S(=O)(/C=C/c1ccc(F)cc1)Cc1ccc(Cl)cc1` [Example 7, (E)-4-fluorostyryl-4-chlorobenzyl sulfone], for which the “Protection Ratio” value in series [2] (5-fluorouracil 20 µM (DNA antimetabolite)) was found to be 1.3; in series [2] (camptothecin 0.5 µM (topoisomerase I inhibitor)) it was 2.1; in series [2] (cisplatin 5.0 µM (alkylating agent)) it was 1.3; in series [2] (doxorubicin 0.4 µM (topoisomerase II inhibitor)), 1.5; in series [2] (etoposide 3.0 µM (topoisomerase II inhibitor)) it was 3.5; in series [2] (mitoxantrone 0.3 µM (topoisomerase II inhibitor)), 2.0. Besides, the results for the “Protection Ratio” value in series [2] (paclitaxel 0.25 µM (antimitotic)) and in series [2] (vincristine 0.25 µM (antimitotic)) were 2.5 and 3.0, respectively. The CC50 at 24 h in series [3] was 70 µM. Besides, in series [1], the Cytoprotection result was “+”.

With `O=C(O)c1ccc(/C=C/S(=O)(=O)Cc2ccc(Cl)cc2)cc1` [Example 10, (E)-4-carboxystyryl-chlorobenzyl sulfone], the Cytoprotection result in series [1] is reported as “+”.

As for `O=S(=O)(/C=C/c1ccc(F)cc1Cl)Cc1ccc(Cl)cc1` [Example 9, (E)-2-chbro-4-fluorostryryl4-chlorobenzl sulfone], the Cytoprotection entry in series [1] is listed as “+”.

On to `O=S(=O)(/C=C/c1ccc(F)cc1)Cc1ccc(Cl)cc1Cl` [Example 11, (E)-4-fluorostyryl-2,4-dichlorobenzyl sulfone], for which the Cytoprotection result in series [1] is given as “+”.

For the molecule `O=S(=O)(/C=C/c1ccc(Cl)cc1)Cc1ccc(Cl)cc1` [Example 8, (E)-4-chlorostyryl-4-chlorobenzyl sulfones], the Cytoprotection result in series [1] is given as “+”.
